Assay results as given in patent publication US6353025B1, “Phenylaminoalkylcarboxylic acid derivatives and pharmaceutical compositions comprising the same” (Kissei Pharmaceutical Co., Ltd., priority 1997, dated 2002).
Structures can show the parent of a compound that is named as a salt. Where two headings read alike, the source gives them in different places.

Legend:
β3-adrenoceptor = β3-adrenoceptor (Mustela putorius furo, UniProt M3YEU4); test: β3-adrenoceptor stimulating effects: relaxation of isolated ferret urinary bladder smooth muscle strips (Magnus method); settings: read-out: EC50 (molar concentration producing 50% relaxation of urinary bladder smooth muscle); isolated male ferret urinary bladder strips; 0% = maximal relaxation after 10^−5 M forskolin
Chain of β3-adrenoceptor (M3YEU4 entry or part of it): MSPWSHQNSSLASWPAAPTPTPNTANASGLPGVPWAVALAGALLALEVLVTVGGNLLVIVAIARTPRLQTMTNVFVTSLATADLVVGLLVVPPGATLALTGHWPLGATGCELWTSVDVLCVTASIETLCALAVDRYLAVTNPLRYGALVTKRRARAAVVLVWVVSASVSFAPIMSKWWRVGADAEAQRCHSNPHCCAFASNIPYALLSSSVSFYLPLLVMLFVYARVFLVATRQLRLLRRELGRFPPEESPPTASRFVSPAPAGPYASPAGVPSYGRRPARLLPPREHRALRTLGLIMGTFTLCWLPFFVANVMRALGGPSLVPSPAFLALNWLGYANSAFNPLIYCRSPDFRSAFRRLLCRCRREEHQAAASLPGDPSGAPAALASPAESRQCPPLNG
Procedure: The experiment for measuring β3-adrenoceptor stimulating effects
Urinary bladders of male ferrets (1100 to 1400 g in body weight) were isolated and urinary bladder smooth muscle strips of approximately 10 mm in length and approximately 2 mm in width were prepared. The experiment was conducted according to the Magnus method. The preparations with a tension of 1 g were exposed to Krebs-Henseleit solution maintained at 37° C. and gassed with a mixture of 95% oxygen and 5% carbon dioxide. Basal tensions of urinary bladder were measured isometrically with a force-displacement transducer and recorded on a rectigram. The drug was added cumulatively to the Magnus bath every 5 minutes. […] In this experiment, tension of urinary bladder smooth muscle before the addition of the drug was expressed as 100% and tension of maximal relaxation after the addition of 10^−5 molar concentration of forskolin was expressed as 0%.

β1-adrenoceptor = target: T1, β1-adrenoceptor (Rattus norvegicus, UniProt P18090); test: β1-adrenoceptor stimulating effects: increase of heart rate in isolated rat atria (Magnus method); parameters: species or system SD rats
T1 construct: Atria of male SD rats (250 to 400 g in body weight) were isolated; from tissue; host or cells: isolated rat atria
T1 sequence (P18090 whole entry): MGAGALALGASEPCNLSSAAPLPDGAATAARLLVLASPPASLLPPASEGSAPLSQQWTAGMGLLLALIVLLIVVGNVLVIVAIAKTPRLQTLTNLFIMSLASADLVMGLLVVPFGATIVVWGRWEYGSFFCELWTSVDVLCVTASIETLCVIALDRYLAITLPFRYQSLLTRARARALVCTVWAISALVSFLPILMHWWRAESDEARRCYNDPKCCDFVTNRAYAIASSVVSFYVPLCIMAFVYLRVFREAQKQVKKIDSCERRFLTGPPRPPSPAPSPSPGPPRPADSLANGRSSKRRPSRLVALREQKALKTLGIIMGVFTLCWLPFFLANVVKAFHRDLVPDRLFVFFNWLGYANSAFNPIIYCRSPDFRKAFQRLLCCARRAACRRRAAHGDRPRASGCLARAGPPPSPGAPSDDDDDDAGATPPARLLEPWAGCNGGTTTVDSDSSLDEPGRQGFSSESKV
Procedure: The experiment for measuring β1-adrenoceptor stimulating effects
Atria of male SD rats (250 to 400 g in body weight) were isolated and the experiment was conducted according to the Magnus method. The preparations with a tension of 0.5 g were exposed to Krebs-Henseleit solution maintained at 37° C. and gassed with a mixture of 95% oxygen and 5% carbon dioxide. The cardiac contractility was measured isometrically with a force-displacement transducer, and heart rate was recorded on a rectigram via a tachometer, and the drug was added cumulatively.

β2-adrenoceptor = target: T2, β2-adrenoceptor (Rattus norvegicus, UniProt P10608); test: β2-adrenoceptor stimulating effects: inhibition of spontaneous contraction of isolated pregnant rat uterus (Magnus method); settings: isolated uterine muscle strips of pregnant SD rats (pregnancy day 21)
T2 construct: Uteri of pregnant SD rats (pregnancy day 21) were isolated and longitudinal uterine muscle strips; from tissue; host or cells: longitudinal uterine muscle strips of pregnant SD rats
T2 sequence (P10608 whole entry): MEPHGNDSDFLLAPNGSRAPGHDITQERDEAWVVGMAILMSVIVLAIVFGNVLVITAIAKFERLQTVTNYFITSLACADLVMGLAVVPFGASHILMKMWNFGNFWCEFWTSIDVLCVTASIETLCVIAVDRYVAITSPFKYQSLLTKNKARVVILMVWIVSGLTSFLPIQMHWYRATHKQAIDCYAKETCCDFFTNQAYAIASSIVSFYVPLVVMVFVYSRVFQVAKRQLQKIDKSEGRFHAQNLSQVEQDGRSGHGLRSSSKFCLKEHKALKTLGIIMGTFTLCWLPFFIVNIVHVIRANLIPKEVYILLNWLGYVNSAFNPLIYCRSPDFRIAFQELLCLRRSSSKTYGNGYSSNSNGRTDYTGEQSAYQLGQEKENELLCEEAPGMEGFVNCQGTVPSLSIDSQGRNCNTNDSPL
Procedure: The experiment for measuring β2-adrenoceptor stimulating effects
Uteri of pregnant SD rats (pregnancy day 21) were isolated and longitudinal uterine muscle strips of approximately 15 mm in length and approximately 5 mm in width free from the basal plate were prepared. The experiment was conducted according to the Magnus method. The preparations with a tension of 0.5 g were exposed to Locke-Ringer solution maintained at 37° C. and gassed with a mixture of 95% oxygen and 5% carbon dioxide. Spontaneous contractions of myometrium were measured isometrically with a force-displacement transducer and recorded on a rectigram. The drug was added cumulatively to the Magnus bath every 5 minutes.

male ICR rats = test: Acute toxicity test; type: in vivo; settings: male ICR rats of 4 weeks age, intravenously, 250 mg/kg, during 24 hours after the administration
Procedure: To male ICR rats of 4 weeks age was administered intravenously N-[2,6-dichloro-4-[2-[[(1S, 2R)-2-hydroxy-2-(4-hydroxyphenyl)-1-methylethyl]amino]ethyl]phenyl]aminoacetic acid at a dose of 250 mg/kg.

| EC50 (β2-adrenoceptor) [nM] | Compound | EC50 (β1-adrenoceptor) [µM] | further results |
| --- | --- | --- | --- |
|  | C[C@H](Cc1ccc(OCC(=O)O)cc1)NC[C@H](O)c1cccc(Cl)c1 [BRL-37344, reference compound] |  | EC50 (β3-adrenoceptor): 1.6 nM; EC50 (β1-adrenoceptor; read-out: EC50 (molar concentration producing 50% increase of heart rate per minute), isolated male SD rat atria, 100% = increase after 10^−8 M isoproterenol): 0.27 µM; EC50 (β2-adrenoceptor; read-out: EC50 (molar concentration producing 50% inhibition of uterine contraction)): 9 nM |
| 650 | CCOC(=O)CNc1c(Cl)cc(CCN[C@@H](C)[C@H](O)c2ccc(O)cc2)cc1Cl [Compound 2, Ethyl N-[2,6-dichloro-4-[2-[[(1S, 2R)-2-hydroxy-2-(4-hydroxy-phenyl)-1-methylethyl]amino]ethyl]phenyl]aminoacetate hydrochloride] | 0.05 |  |
|  | C[C@H](NCCc1cc(Cl)c(NCC(=O)N(C)C)c(Cl)c1)[C@H](O)c1ccc(O)cc1 [Compound 16, 2-[[2,6-Dichloro-4-[2-[[(1S, 2R)-2-hydroxy-2-(4-hydroxyphenyl)-1-methylethyl]amino]ethyl]phenyl]amino]-N, N-dimethylacetamide hydrochloride] | > 100 |  |
| 650 | C[C@H](NCCc1ccc(NCC(=O)O)cc1)[C@H](O)c1ccc(O)cc1 [Compound 18, N-[4-[2-[[(1S, 2R)-2-hydroxy-2-(4-hydroxyphenyl)-1-methylethyl]-amino]ethyl]phenyl]aminoacetic acid] | 0.083 |  |
| 3300 | C[C@H](NCCc1ccc(NCC(=O)O)c(Cl)c1)[C@H](O)c1ccc(O)cc1 [Compound 20, N-[2-Chloro-4-[2-[[(1S, 2R)-2-hydroxy-2-(4-hydroxyphenyl)-1-methylethyl]amino]ethyl]phenyl]aminoacetic acid] | 23 |  |
| 1600 | C[C@H](NCCc1ccc(N(C)CC(=O)O)cc1)[C@H](O)c1ccc(O)cc1 [Compound 21, N-[4-[2-[[(1S, 2R)-2-Hydroxy-2-(4-hydroxyphenyl)-1-methylethyl]-amino]ethyl]phenyl]-N-methylaminoacetic acid] | 34 |  |
|  | C[C@H](NCCc1cc(Br)c(NCC(=O)O)c(Br)c1)[C@H](O)c1ccc(O)cc1 [Compound 29, N-[2,6-Dibromo-4-[2-[[(1S, 2R)-2-hydroxy-2-(4-hydroxyphenyl)-1-methylethyl]amino]ethyl]phenyl]aminoacetic acid] | > 100 |  |
| 1700 | C[C@H](NCCc1cc(Cl)c(NCC(=O)N2CCOCC2)c(Cl)c1)[C@H](O)c1ccc(O)cc1 [Compound 32, 4-[2-[[2,6-Dichloro-4-[2-[[(1S, 2R)-2-hydroxy-2-(4-hydroxy-phenyl)-1-methylethyl]amino]ethyl]phenyl]amino]acetyl]morpholine] | > 100 |  |

| Compound | EC50 (β2-adrenoceptor) [nM] | EC50 (β1-adrenoceptor) [µM] | further results |
| --- | --- | --- | --- |
| C[C@H](NCCc1cc(Cl)c(NCC(=O)O)c(Cl)c1)[C@H](O)c1ccc(O)cc1 [Compound 17, N-[2,6-Dichloro-4-[2-[[(1S, 2R)-2-hydroxy-2-(4-hydroxyphenyl)-1-methylethyl]amino]ethyl]phenyl]aminoacetic acid] | 14000 | > 100 | Death of animals (acute toxicity) (male ICR rats): No death of animals was observed |
